The assay has as its target T1, LmxPKAR1-LmxPKAC1 (mNG::PKAC1) (Leishmania mexicana, UniProt E9AP50).
T1 construct: gene LMXM_13_0160; with protein kinase A catalytic subunit isoform 1
T1 sequence (E9AP50 1-503): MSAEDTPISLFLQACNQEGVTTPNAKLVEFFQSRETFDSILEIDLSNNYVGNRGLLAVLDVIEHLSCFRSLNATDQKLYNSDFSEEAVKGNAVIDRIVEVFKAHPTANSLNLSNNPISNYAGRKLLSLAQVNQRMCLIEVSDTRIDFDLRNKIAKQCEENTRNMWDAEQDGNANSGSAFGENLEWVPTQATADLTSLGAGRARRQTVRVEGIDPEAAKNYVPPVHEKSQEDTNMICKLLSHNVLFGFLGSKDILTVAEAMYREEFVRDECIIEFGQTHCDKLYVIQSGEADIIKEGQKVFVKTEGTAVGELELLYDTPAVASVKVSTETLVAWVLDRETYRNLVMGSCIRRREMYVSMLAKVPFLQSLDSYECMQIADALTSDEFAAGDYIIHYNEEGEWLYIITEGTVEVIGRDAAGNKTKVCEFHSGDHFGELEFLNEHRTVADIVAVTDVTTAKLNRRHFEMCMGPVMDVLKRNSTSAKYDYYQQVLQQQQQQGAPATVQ
T1 sequence (E9B6S9 1-371 partner): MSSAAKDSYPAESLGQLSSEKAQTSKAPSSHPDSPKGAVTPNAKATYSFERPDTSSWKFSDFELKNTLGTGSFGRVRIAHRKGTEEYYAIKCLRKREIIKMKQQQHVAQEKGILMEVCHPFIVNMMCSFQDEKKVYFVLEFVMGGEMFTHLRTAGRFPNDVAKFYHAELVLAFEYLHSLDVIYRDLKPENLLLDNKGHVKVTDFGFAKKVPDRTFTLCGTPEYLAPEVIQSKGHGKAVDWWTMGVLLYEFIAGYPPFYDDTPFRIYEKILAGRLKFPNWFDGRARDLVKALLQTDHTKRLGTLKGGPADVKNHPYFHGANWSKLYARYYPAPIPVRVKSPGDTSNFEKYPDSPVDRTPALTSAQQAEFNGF
The assay can be described thus: release of mNG::PKAC1 fluorescence from flagellar cytoskeletons, microscopy. It counts as biochemical. The conditions noted are these: indirect assay of PKAR1 activation; detergent-extracted cytoskeletons in PEME buffer; 10 nM to 10 µM inosine.

Structures are written as SMILES.

The term EC50 denotes the concentration that produces a half-maximal response. A high value points to weaker potency.

As for `OC[C@H]1O[C@@H](n2cnc3c(O)ncnc32)[C@H](O)[C@@H]1O` [inosine], the 50% effective concentration (EC50) was around 9 nM.

(Values after article doi:10.1101/2023.11.08.566240v2, “Divergent Protein Kinase A contributes to the regulation of flagellar waveforms in Leishmania mexicana” (biorxiv, 2025).)
